Assay results taken from patent publication US20220202052A1, “AROMATIC ALKAMIDES AND METHODS OF USE THEREOF IN TASTE MODULATION” (INTERNATIONAL FLAVORS & FRAGRANCES INC., priority 2019, published 2022).

Experiments:
Assay type in all cases: in vivo, human
[1] = Trained taste panel, individual alkamides and blend vs ethanol extract; conditions: 5% pea protein isolate with 200 μl ethanol, levels per sample in Table 12; for Liking Score: 1 is best, 10 is worst
Procedure: Additional compositions were prepared (Table 12) and assessed by a trained taste panel for taste modulating activity as compared to an ethanol extract of L. meyenii. The protein control sample was a 5% pea protein isolate solution with 200 μl of ethanol added thereto.

[2] = Sensory analysis of aromatic alkamide fractions by trained taste panel; conditions: 0.5 ppm in 4% pea protein isolate solution
Procedure: Sensory analysis of the aromatic alkamides was carried out. Specifically, each isolated fraction, corresponding to each of the aromatic alkamides in Table 7 (samples 14 to 21) (0.5 ppm), was added to a 4% pea protein isolate solution and the ability of the fraction to mask protein off-taste, bitterness, and/or astringency was assessed by a trained taste panel.

[3] = Modulation of umami perception, trained panel; conditions: 0.5 ppm in 0.4% Chicken Bouillon solution
Procedure: The ability of L. meyenii extracts and fractions thereof to modulate umami flavors was determined by adding 25 ppm of an ethanolic extract of L. meyenii root (Example 1), 2 ppm of an ethyl acetate layer of a crude ethanolic extract, or 0.5 ppm of a fraction enriched in N-benzyloctadecanamide to a 0.4% Chicken Bouillon solution (Knorr Chicken Bouillon). Sensory analyses of the above-referenced compositions were carried out by a trained panel, the results of which are presented in Table 10.

Row | SMILES | Off Taste: Astringent (intensity) [1] | Off Taste: Beany (intensity) [1] | Off Taste: Bitter (intensity) [1] | Off Taste: Burnt (intensity) [1] | Off Taste: Chalky (intensity) [1] | Off Taste: Earthy (intensity) [1] | Off Taste: Fishy (intensity) [1] | Off Taste: Gritty (intensity) [1] | Off Taste: Metallic/Unpleasant (intensity) [1] | Off Taste: Nutty (intensity) [1] | Off Taste: Sour (intensity) [1] | Liking Score [1] | Sensory taste in 4% protein base [2] | Chicken Bouillon sensory (umami modulation) [3]
1 | CCCCCCCCCCCCCCCC(=O)NCc1ccccc1 [Macamide 1, N-benzylhexadecanamide] | 2 | 3 | 2 | 0 | 2 | 2 | 0 | 2 | 1 | 0 | 2 | 1 |  | 
2 | CCCCCCCCC/C=C/C=C/C(=O)CCCC(=O)NCc1ccccc1 [Macamide 2] | 2 | 5 | 3 | 0 | 2 | 2 | 0 | 2 | 1 | 2 | 3 | 2 | Good masking. | 
3 | CCCCC/C=C\C/C=C\CCCCCCCC(=O)NCc1ccccc1 [N-Benzyl linoleamide, N-Benzyllinoleamide] |  |  |  |  |  |  |  |  |  |  |  |  | Little masking. | 
4 | CC/C=C\C/C=C\C/C=C\CCCCCCCC(=O)NCc1ccccc1 [N-Benzyl linolenamide, N-Benzyllinolenamide] |  |  |  |  |  |  |  |  |  |  |  |  | Moderate masking. | 
5 | CCCCCCCCCCCCCCCCCC(=O)NCc1ccccc1 [N-Benzyloctadecanamide, N-Benzyl octadecanamide] | 2 | 3 | 2 | 0 | 2 | 2 | 0 | 2 | 2 | 2 | 2 | 1 |  | Showed some enhancement
6 | CCCCCCCC/C=C\CCCCCCCC(=O)NCc1ccccc1 [N-Benzyloleamide] | 4 | 5 | 2 | 0 | 6 | 2 | 0 | 4 | 2 | 2 | 2 | 2 | Little masking. | 
